From patent EP0080940B1, “Derivatives of 2-phenyl-morpholine and medical compositions” (LABORATOIRE L. LAFON Société anonyme dite:, priority 1981, dated 1983)

Assays:
rats [1] = experiment: Interaction with amphetamine; format: in vivo; details: rat, 8 mg/kg et 32 mg/kg i.p., amphétamine 2 mg/kg i.p.
Description: L'amphétamine (2 mg/kg) est injectée par voie intrapéritonéale à des lots de 12 rats, une demi-heure après l'administration de CRL 40914.
(§1) On a résumé ci-après les résultats des essais qui ont été entrepris chez l'animal avec le CRL 40915, les modalités opératoires étant celles données ci-dessus pour le CR L 40914.

rat = experiment: Global behaviour and reactivity, rat; format: in vivo
Description: (§2) On a résumé ci-après les résultats des essais qui ont été entrepris chez l'animal avec le CRL 40914, ce produit étant administré, sauf indications contraires, en solution dans l'eau (à pH 5) par voie intrapéritonéale sous un volume de 20 ml/kg chez la souris mâle et de 5 ml/kg chez le rat mâle.
Des lots de 3 animaux sont observés avant, puis 15 min, 30 min, 1 h, 2 h, 3 h et 24 h après l'administration de CRL 40914. On observe ce qui suit:
as §1

souris [2] = experiment: Motility reduced by habituation to the enclosure; format: in vivo; details: 64 mg/kg i.p.
Description: Après 18 h de séjour dans les actimètres, les souris (6 par dose, 12 témoins) reçoivent le CRL 40914. Elles sont aussitôt replacées dans leurs enceintes respectives et, une demi-heure plus tard, on enregistre leur motilité pendant 30 min.
as §1

rats [3] = experiment: Interaction with apomorphine, rat; format: in vivo; details: apomorphine 0,5 mg/kg s.c.
Description: Le CRL 40914 est administré aux rats une demi-heure avant l'injection sous-cutanée de 0,5 mg/kg d'apomorphine.
as §1

souris mâle [4] = experiment: Acute toxicity by the i.p. route (DL-0, DL-50); format: in vivo; details: voie i.p.
Description: as §2
Chez la souris mâle, la DL-0 (dose maximale non mortelle) par voie i.p. est supérieure à 128 mg/kg.
as §1
Chez la souris mâle, la DL-0 (dose maximale non mortelle) par voie i.p. est supérieure à 256 mg/kg, et la DL-50 par voie i.p. est de l'ordre de 500 mg/kg environ.

souris [5] = experiment: Motility reduced by hypoxic aggression; format: in vivo; details: i.p., anoxie hypobare aiguë
Description: Une demi-heure après avoir reçu le CRL 40914, les souris (10 par dose, 20 témoins) sont soumises à une anoxie hypobare aiguë [dépression de 600 mm Hg (soit environ 8 x10^4 pascals) en 90 s puis détente de 45 s] puis elles sont placées en actimètre où leur motilité est enregistrée pendant 10min.
as §1

souris [6] = experiment: Interaction with yohimbine, spontaneous motility; format: in vivo; details: yohimbine 0,5 mg/kg i.p.
Description: Des lots de 12 souris reçoivent la yohimbine (0,5 mg/kg i.p.) et le CRL 40914 respectivement 60 et 30 min avant d'être placées en actimètre où leur motilité est enregistrée pendant une demi-heure.

souris [7] = experiment: Behavioural despair (immobility in water); format: in vivo; details: souris en immersion, dès 4 mg/kg i.p.; effet particulièrement net à 64 mg/kg
Description: Une demi-heure après avoir reçu le CRL 40914 ou la désipramine, des lots de 10 souris sont plongés dans un bécher rempli d'eau sur une hauteur de 6 cm. On note la durée d'immobilité de la souris entre la 2ème et la 6ème min suivant son immersion.

homme = experiment: Clinical use by the oral route; format: in vivo; details: voie orale, 2 à 3 comprimés ou gélules (10 à 20 mg chacun) par jour
[8] = tested on: rats génétiquement hypertendus; experiment: Action on the cardiovascular system; format: in vivo, rat; details: 20 mg/kg par voie buccale
Description: Six rats génétiquement hypertendus à cathéter artériel fémoral implanté reçoivent le CRL 40914 à la dose de 20 mg/kg par voie buccale.

souris mâle [9] = experiment: Action on intergroup aggressiveness; format: in vivo
Description: Cet effet pourrait résulter de la sédation qui se manifeste à faible dose (4 mg/kg) et de l'excitation motrice qui se manifeste à forte dose (64 mg/kg).

rats [10] = experiment: Search for stereotyped movements; format: in vivo; details: rat
Description: Des lots de 6 rats reçoivent une injection intrapéritonéale de CRL 40914 ou d'amphétamine puis sont immédiatement placés dans des boîtes de petites dimensions où leur comportement stéréotypé est coté de 0 à 3 toutes les 10 min jusqu'à extinction de l'effet.

souris [11] = experiment: Asphyxic anoxia (gallamine triethiodide); format: in vivo
Description: Des lots de 10 souris reçoivent le CRL 40914 une demi-heure avant l'administration intrapéritonéale de 32 mg/kg de triiodoéthylate de gallamine (agent curarisant de référence).
as §1

souris [12] = experiment: Four plates test, traction and electroshock; format: in vivo
Description: Le test est pratiqué sur des lots de 10 souris, une demi-heure après l'administration de CRL 40914.
as §1

souris [13] = experiment: Interaction with barbital; format: in vivo; details: barbital sodique 220 mg/kg i.p.
Description: Des lots de 10 souris reçoivent le CRL 40914 une demi-heure avant l'injection intrapéritonéale de 220 mg/kg de barbital sodique.

Compound: CCN1CCOC(c2ccccc2)C1 (centres unmarked) [CRL 40914, Chlorhydratede 2-phényl-4-éthyl-morpholine]
- stéréotypies amphétaminiques (rats [1]): diminue nettement l'intensité des téréotypies amphétaminiques
- mydriase (rat; rat, 0,5 mg/kg i.p.): mydriase pendant 1 à 2 h
- mydriase (rat; rat, 2 mg/kg i.p.): mydriase pendant 1 à 2 h
- sédation (rat; rat, 2 mg/kg i.p.): sédation pendant 1 h
- mydriase (rat; rat, 8 mg/kg i.p.): mydriase pendant 2 h
- piloérection (rat; rat, 8 mg/kg i.p.): piloérection pendant 1 à 2 h
- sédation (rat; rat, 8 mg/kg i.p.): sédation pendant 2 h avec diminution de la réactivité au toucher mais augmentation de la réaction de peur
- mydriase (rat; rat, 32 mg/kg i.p.): mydriase pendant plus de 3 h
- piloérection, salivation et lacrymation (rat; rat, 32 mg/kg i.p.): piloérection (pendant 3 h), salivation (pendant 1 h) et lacrymation (pendant 1 h)
- réaction de peur (rat; rat, 32 mg/kg i.p.): augmentation de la réaction de peur pendant 3 h
- sédation (rat; rat, 32 mg/kg i.p.): sédation pendant 3 h avec diminution de la réactivité au toucher et du tonus musculaire
- activité motrice chez la souris habituée à son enceinte (souris [2]): reprise très nette de l'activité motrice
- stéréotypies induites par l'apomorphine (rats [3]; rat, 0,5 mg/kg, 2 mg/kg et 8 mg/kg i.p.): semble diminuer modérément l'intensité des téréotypies induites par l'apomorphine
- stéréotypies induites par l'apomorphine (rats [3]; rat, 32 mg/kg i.p.): potentialisation discrète des stéréotypies
- DL-0 (dose maximale non mortelle) (souris mâle [4]): > 128 mg/kg
- activité motrice après agression hypoxique (souris [5]): modifications de l'activité motrice qui reflètent son action sur la motilité spontanée
- hypomotilité produite par le CRL 40914 après yohimbine (souris [6]; CRL 40914 1 mg/kg): s'oppose à l'hypomotilité
- hypomotilité produite par le CRL 40914 après yohimbine (souris [6]; CRL 40914 16 mg/kg): ne modifie pas celle provoquée par 16 mg/kg
- durée d'immobilité (souris [7]): diminue la durée d'immobilité
- résultats cliniques (agent antidépresseur du SNC) (homme): d'excellents résultats
- effet sur la pression artérielle [8]: modérément hypotenseur
- temps de l'effet maximal sur la pression artérielle [8]: 7 h
- variation de la pression artérielle ([8]; 7 h après): -18%
- pression artérielle (effet maximal) ([8]; 7 h après, valeur initiale 165): 135 mm Hg
- pression artérielle et fréquence cardiaque après 24 h ([8]; 24 h): sont revenues à leur valeur témoin
- fréquence cardiaque (minimum) ([8]; après 1,5 h, valeur initiale 350): 270 battements/minute
- combats (agressivité intergroupe) (souris mâle [9]; 4 mg/kg): supprime les combats entre les souris de 2 groupes différents
- durée de contact entre les souris (agressivité intergroupe) (souris mâle [9]; 64 mg/kg): diminue la durée de contact entre les souris
- mouvements stéréotypés (rats [10]; 32 mg/kg i.p.): ne provoque pas de stéréotypies
- mouvements stéréotypés (rats [10]; 64 mg/kg i.p.): mouvements stéréotypés d'intensité et de durée comparables à ceux observés après administration de 1 mg/kg d'amphétamine
- mouvements stéréotypés (rats [10]; 128 mg/kg i.p.): cet effet est encore plus net
- apparition des convulsions et de la mort (anoxie asphyxique) (souris [11]; 1 mg/kg, 4 mg/kg et 16 mg/kg i.p., triiodoéthylate de gallamine 32 mg/kg i.p.): retard d'apparition des convulsions et, à un degré moindre, de la mort
- apparition des convulsions et de la mort (anoxie asphyxique) (souris [11]; dose plus élevée (above 16 mg/kg) i.p.): cet effet disparaît
- effets létaux de l'électrochoc (souris [12]; 64 mg/kg i.p.): aggrave les effets létaux de l'électrochoc
- déficit moteur (traction) (souris [12]; i.p.): ne provoque pas de déficit moteur majeur
- nombre de passages punis (test des quatre plaques) (souris [12]; i.p., faible dose / forte dose): à faible dose une diminution, et à forte dose une augmentation du nombre de passages punis
- durée du sommeil induit par le barbital (souris [13]; 4 mg/kg et 16 mg/kg i.p.): semble prolonger modérément la durée du sommeil induit par le barbital
- durée du sommeil induit par le barbital (souris [13]; 64 mg/kg i.p.): antagonisme net
